Test results as given in patent publication US20050091702A1, “Expression of polypeptides in rod outer segment membranes” (priority 2001, published 2005).

What was measured:
[1] = biological target: T1, 5HT1AR-GFP-1D4 fusion protein (Homo sapiens, UniProt P08908); test: Saturation radioligand binding to transgenic tadpole membranes expressing 5HT1AR-GFP-1D4
T1 construct: expressed in transfected cells; host or cells: transgenic Xenopus laevis tadpoles (rod cells; homogenized membranes), transgene pXOP-5HTR-GFP-1D4
Protocol: (§1) Radioligand binding assay were performed using transgenic tadpoles (stage 48 or older) or CHO cells expressing 5HT1A receptors homogenized in binding buffer (50 mM Tris-HCl, pH 7.4, 2 mM MgCl2, 1 mM EDTA and proteinase inhibitor cocktail). The binding assay was performed in 96-well plate with [methyl-^3H]-MPPE as a radioligand. For saturation binding analyses, the membranes (20 μg/well) were incubated with 0.05% saponin in a final volume of 50 μl at room temperature for 10 min, and then incubated with 50 μl of [methyl-^3H]-MPPE (0-50 nM) for another 90 min. Nonspecific binding was determined in the presence of 10 μM serotonin. Assays were terminated by rapid filtration through GF/C filter plate with 4 times washes with washing buffer (20 mM Trics-HCl, pH 7.4). The radioactivity was measured by a TopCount (PerkinElmer). Assays were performed in duplicate.
(§2) Binding assays were performed to confirm that the 5HT1A receptor was expressed as a functional 5HT1AR-GPF-1D4 fusion protein in rod cell ROS of Xenopus tadpoles. Binding affinity was determined by measuring the binding affinity of [methyl-^3H]-MPPF, a radiolabeled selective ligand to the 5HT1A receptor, to the expressed fusion protein. Because the 5HT1A receptor expressed in ROS disk membranes is oriented with the extracellular side facing the interior of these disks and shielded from the solution, the detergent saponin was used to open up pores in these disk membranes and allow access to the ligands. Saponin at a concentration of 0.05% or more could effectively increase specific binding of [methyl-^3H]-MPPE to 5HT1AR transgenic tadpole membranes, but not to control tadpole membranes. […] Based on these observations, 0.05% saponin was included in all ligand binding assays.
(§3) Saturation binding assays were also performed to measure the binding affinity and compare it to 5HT1A receptor expressed in standard mammalian CHO cells. […] The low nanomolar affinity and extent of specific binding further corroborates that the 5HT1A receptor is properly folded in transgenic tadpoles. […]

[2] = biological target: T2, 5HT1A receptor (Homo sapiens, UniProt P08908); test: Saturation radioligand binding to membranes from CHO cells expressing the 5HT1A receptor; conditions: membrane samples from CHO cells expressing the 5HT1A receptor, read-out: binding affinity KD
T2 construct: expressed in transfected cells; host or cells: CHO cells (transient expression)
T2 sequence (P08908 1-422): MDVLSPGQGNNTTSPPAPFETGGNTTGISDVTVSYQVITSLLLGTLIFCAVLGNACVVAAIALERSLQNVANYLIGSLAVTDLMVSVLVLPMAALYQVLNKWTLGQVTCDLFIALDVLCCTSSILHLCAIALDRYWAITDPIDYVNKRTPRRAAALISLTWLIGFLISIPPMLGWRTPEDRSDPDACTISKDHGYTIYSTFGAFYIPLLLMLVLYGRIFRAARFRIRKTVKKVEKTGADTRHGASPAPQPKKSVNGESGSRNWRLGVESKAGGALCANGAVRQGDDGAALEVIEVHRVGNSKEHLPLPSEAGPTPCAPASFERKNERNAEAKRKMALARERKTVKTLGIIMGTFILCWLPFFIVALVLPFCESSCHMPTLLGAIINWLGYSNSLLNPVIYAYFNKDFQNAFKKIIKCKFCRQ
Protocol: as §1
Saturation binding assays were also performed to measure the binding affinity and compare it to 5HT1A receptor expressed in standard mammalian CHO cells. […] The low nanomolar affinity and extent of specific binding further corroborates that the 5HT1A receptor is properly folded in transgenic tadpoles. […] For example, the effect on binding affinity may be due to different ligand kon or koff kinetic parameters, or different partition coefficients to the different lipids present in these membranes.

[3] = system: 5HT1AR-GFP-1D4 fusion protein; test: Saturation radioligand binding to transgenic tadpole membranes expressing 5HT1AR-GFP-1D4; parameters: species or system human; conditions: tadpole KD versus CHO KD
Protocol: as §1, §2, §3

[4] = system: CHO membranes; test: Hydroxylamine effect on [35S]GTPγS binding to CHO membranes; type: biochemical; conditions: 10 mM hydroxylamine
Protocol: (§4) A receptor binding assay was performed to determine retention of functional receptor using [^35S]GTPγS labeled receptor ligand. Transgenic tadpoles (stage 48 or older) or CHO cells expressing 5HT1A receptors were homogenized in binding buffer (20 mM HEPES, pH 7.4, 10 mM MgCl2, 1 mM EDTA, 100 mM NaCl). The binding assay was performed in 96-well Scintiplate (PerkinElmer). To reduce [^35S]-GTPγS binding to rhodopsin-activated transducin in retina membrane, the membrane from tadpoles was preincubated with 10 mM hydroxylamine in binding buffer at room temperature for 60 min. The membranes (25 μg/well) were incubated with indicated ligands for 30 min in a total volume of 150 μl binding buffer containing 10 μM GDP, 0.5% BSA, 1 mM DTT), then 50 μl of […] [^35S]-GTPγS was added to each well to make a final concentration of 200 pM. The binding assays were carried out at room temperature for 60 min under gentle shaking. Final concentration of hydroxylamine in binding assay should be no more than 1 mM, Nonspecific binding was determined in the presence of 10 μM unlabelled GTPγS. Assays were terminated by centrifugation at 4000 g for 15 min and removal of supernatant. The radioactivity was measured by a TopCounter (PerkinElmer). Assays were performed in triplicate. […]

[5] = biological target: T3, rhodopsin-transducin interaction (Xenopus laevis, UniProt P29403); test: Hydroxylamine inactivation of rhodopsin-mediated basal [35S]GTPγS binding in tadpole ROS membranes; type: biochemical; conditions: 10 mM hydroxylamine, room temperature
T3 construct: from tissue; host or cells: Xenopus laevis tadpole (retina/ROS) membranes
T3 sequence (P29403 1-354): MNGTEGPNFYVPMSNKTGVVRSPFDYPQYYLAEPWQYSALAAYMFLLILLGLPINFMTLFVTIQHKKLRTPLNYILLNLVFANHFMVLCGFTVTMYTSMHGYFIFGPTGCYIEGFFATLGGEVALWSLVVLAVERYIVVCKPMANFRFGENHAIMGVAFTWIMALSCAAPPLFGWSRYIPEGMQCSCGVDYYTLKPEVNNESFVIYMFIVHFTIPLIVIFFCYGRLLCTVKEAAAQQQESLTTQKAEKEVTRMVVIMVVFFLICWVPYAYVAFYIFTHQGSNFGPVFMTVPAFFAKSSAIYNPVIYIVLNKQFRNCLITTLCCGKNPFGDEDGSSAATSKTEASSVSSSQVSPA
Protocol: as §4

[6] = biological target: T4, 5HT1A receptor (Homo sapiens, UniProt P08908); test: [35S]GTPγS binding to transgenic tadpole membranes expressing 5HT1A; type: biochemical
T4 construct: expressed in transfected cells; host or cells: transgenic Xenopus laevis tadpoles (rod cells; homogenized membranes), transgene pXOP-5HTR-GFP-1D4
Protocol: as §4
T4 sequence (P08908 with tags, fused parts or gaps): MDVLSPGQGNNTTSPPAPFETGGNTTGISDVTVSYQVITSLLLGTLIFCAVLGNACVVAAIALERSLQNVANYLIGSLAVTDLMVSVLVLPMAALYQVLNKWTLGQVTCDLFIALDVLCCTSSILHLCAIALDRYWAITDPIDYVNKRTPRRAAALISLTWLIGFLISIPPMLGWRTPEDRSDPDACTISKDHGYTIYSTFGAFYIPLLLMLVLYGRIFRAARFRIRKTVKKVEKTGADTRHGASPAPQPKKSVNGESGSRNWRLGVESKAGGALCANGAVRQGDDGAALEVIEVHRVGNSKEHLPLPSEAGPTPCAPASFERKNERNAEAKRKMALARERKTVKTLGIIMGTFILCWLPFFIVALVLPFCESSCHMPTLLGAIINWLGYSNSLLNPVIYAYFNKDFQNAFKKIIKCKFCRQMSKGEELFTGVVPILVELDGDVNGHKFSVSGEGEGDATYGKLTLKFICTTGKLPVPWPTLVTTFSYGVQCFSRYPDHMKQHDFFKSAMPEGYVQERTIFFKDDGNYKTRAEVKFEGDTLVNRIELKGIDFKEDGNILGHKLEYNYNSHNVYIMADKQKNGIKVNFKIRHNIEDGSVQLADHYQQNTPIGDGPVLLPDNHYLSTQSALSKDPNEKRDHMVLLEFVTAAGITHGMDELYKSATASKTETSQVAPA

[7] = biological target: T2, 5HT1A receptor; test: [35S]GTPγS binding to CHO membranes transiently expressing 5HT1A; type: biochemical; conditions: CHO cells expressing 5HT1A
Protocol: as §4

[8] = biological target: transducin in ROS membrane (Xenopus laevis); test: cell-based or functional assay
[9] = biological target: endogenous G proteins in retina rod cells; test: cell-based or functional assay

T1 sequence (P08908 with tags, fused parts or gaps): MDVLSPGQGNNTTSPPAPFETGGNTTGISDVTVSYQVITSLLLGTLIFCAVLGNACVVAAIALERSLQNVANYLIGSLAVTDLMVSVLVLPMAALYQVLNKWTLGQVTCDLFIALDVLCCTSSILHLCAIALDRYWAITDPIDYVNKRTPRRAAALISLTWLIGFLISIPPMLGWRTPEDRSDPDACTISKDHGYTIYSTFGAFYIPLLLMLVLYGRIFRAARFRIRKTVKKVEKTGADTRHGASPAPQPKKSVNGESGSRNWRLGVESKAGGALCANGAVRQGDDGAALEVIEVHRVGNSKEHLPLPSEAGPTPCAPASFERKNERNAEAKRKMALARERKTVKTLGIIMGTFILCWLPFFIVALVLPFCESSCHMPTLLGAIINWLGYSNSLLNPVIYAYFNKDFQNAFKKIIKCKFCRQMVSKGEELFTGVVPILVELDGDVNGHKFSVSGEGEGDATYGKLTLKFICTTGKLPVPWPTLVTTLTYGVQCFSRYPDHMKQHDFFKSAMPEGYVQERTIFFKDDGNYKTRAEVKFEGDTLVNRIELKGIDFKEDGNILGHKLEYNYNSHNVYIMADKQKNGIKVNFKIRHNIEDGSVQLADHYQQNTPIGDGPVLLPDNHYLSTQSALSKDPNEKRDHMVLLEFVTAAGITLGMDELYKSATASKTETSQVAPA

COc1ccccc1N1CCN(CCN(C(=O)c2ccc(F)cc2)c2ccccn2)CC1 [[methyl-^3H]-MPPF]
Kd ([1]; transgenic Xenopus tadpole membranes expressing 5HT1AR-GFP-1D4, 0.05% saponin, saturation binding, read-out: binding affinity KD): 6.7 nM | Kd [2]: 0.35 ± 0.1 nM

[3H]C([3H])([3H])Oc1ccccc1N1CCN(CCN(C(=O)c2ccc(F)cc2)c2ccccn2)CC1 [[methyl-^3H]-MPPF]
difference in dissociation constants KD between transgenic tadpoles and CHO cells [3]: about 17 fold | specific binding to transgenic 5HT1A tadpole membranes ([1]; FIG. 14, 0.05% saponin, nonspecific binding with 10 μM serotonin): dose-dependent manner

NO [hydroxylamine]
effect on [35S]GTPγS binding [4]: without significant effect | reduction of basal [35S]GTPγS binding [5]: ~50%

NCCc1c[nH]c2ccc(O)cc12 [serotonin, 5-hydroxytryptamine]
stimulation of [35S]GTPγS binding ([6]; tadpole membranes pretreated with 10 mM hydroxylamine): about 50% | effect on [35S]GTPγS binding [7]: specifically stimulated

O=C(CCCN1CCC2(CC1)C(=O)NCN2c1ccccc1)c1ccc(F)cc1 [spiperone]
effect on [35S]GTPγS binding ([6]; transgenic tadpole membranes): significantly block | effect on [35S]GTPγS binding [7]: significantly block

Xenopus rhodopsin (endogenous, in tadpole eye extracts) (from UniProt P29403 1-354) (receptor)
decrease in basal [^35S]GTPγS binding to tadpole membranes after treatment with 10 mM hydroxylamine [8]: 50%

h5HT1AR-GFP-1D4 fusion protein (from UniProt P08908 1-422) (receptor)
[^35S]GTPγS binding to transgenic tadpole membranes, stimulated by the agonist serotonin [9]: 50%
